Test results: ChEMBL document CHEMBL1201862, “PubChem BioAssay data set” (2004)
Where a name gives a salt, the structure may show the parent alone.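 Following 48 hours of exposure in 96-well plates, responses at five concentrations were used to interpolate endpoints linearly. At the GI50, growth is halved.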 Active and inactive are the calls of the source. Cut-off read from the data, not from the text of the source: active = GI50 up to about 1.1 µM and inactive = higher.

Assays:
Test in all cases: NCI anticancer screen, dose series, 48 h
A549 = tested on: A549
CCRF-CEM = tested on: CCRF-CEM
HL-60 = tested on: HL-60
HOP-62 = tested on: HOP-62
HOP-92 = tested on: HOP-92
HT-29 = tested on: HT-29
IGROV-1 = tested on: IGROV-1
NCI-H226 = tested on: NCI-H226
OVCAR-8 = tested on: OVCAR-8
RPMI-8226 = tested on: RPMI-8226
RXF 393 = tested on: RXF 393
SF-268 = tested on: SF-268
SF-295 = tested on: SF-295
SF-539 = tested on: SF-539
SK-MEL-2 = tested on: SK-MEL-2
SK-OV-3 = tested on: SK-OV-3
SN12C = tested on: SN12C
SW-620 = tested on: SW-620
UACC-62 = tested on: UACC-62
UO-31 = tested on: UO-31

Row | SMILES | GI50 (A549) | GI50 (CCRF-CEM) | GI50 (HL-60) | GI50 (HOP-62) | GI50 (HOP-92) | GI50 (HT-29) | GI50 (IGROV-1) | GI50 (NCI-H226) | GI50 (OVCAR-8) | GI50 (RPMI-8226) | GI50 (RXF 393) | GI50 (SF-268) | GI50 (SF-295) | GI50 (SF-539) | GI50 (SK-MEL-2) | GI50 (SK-OV-3) | GI50 (SN12C) | GI50 (SW-620) | GI50 (UACC-62) | GI50 (UO-31)
1 | CNCCC=C1c2ccccc2CCc2ccccc21 [NORTRIPTYLINE HYDROCHLORIDE] | 16.6 µM (inactive) | 12.5 µM (inactive) | 16.1 µM (inactive) | 14.7 µM (inactive) | 13.7 µM (inactive) | 4.69 µM (inactive) | 16.7 µM (inactive) | 22.1 µM (inactive) | 17 µM (inactive) | 12.6 µM (inactive) | 9.35 µM (inactive) | 15.5 µM (inactive) | 14.6 µM (inactive) | 28.5 µM (inactive) | 15.4 µM (inactive) | 12.6 µM (inactive) | 15.4 µM (inactive) | 17.7 µM (inactive) | 14.8 µM (inactive) | 6.14 µM (inactive)
2 | CSCSCC(CO)NC(=O)/C(C)=C\c1c(C)[nH]c(=O)[nH]c1=O (stereo unspecified) | > 250 µM (inactive) | > 250 µM (inactive) | > 250 µM (inactive) | > 250 µM (inactive) | 20.3 µM (inactive) | > 250 µM (inactive) | > 250 µM (inactive) | > 250 µM (inactive) | > 250 µM (inactive) | > 250 µM (inactive) | > 250 µM (inactive) | > 250 µM (inactive) | > 250 µM (inactive) | > 250 µM (inactive) | > 250 µM (inactive) | > 250 µM (inactive) | > 250 µM (inactive) | 237 µM (inactive) | > 250 µM (inactive) | > 250 µM (inactive)
3 | C[C@]12CC[C@H]3[C@@H](CC=C4C[C@@H](O)CC[C@@]43C)[C@@H]1C/C(=C\c1ccc([N+](=O)[O-])cc1)[C@@H]2O | 10.4 µM (inactive) | 5.14 µM (inactive) | 2.65 µM (inactive) | 11.7 µM (inactive) | 21.1 µM (inactive) | 5.83 µM (inactive) | 26 µM (inactive) | 16.8 µM (inactive) | 10.9 µM (inactive) | 7.48 µM (inactive) | 9.71 µM (inactive) | 26.1 µM (inactive) | 16.8 µM (inactive) | 17.1 µM (inactive) | 19.8 µM (inactive) | 13.7 µM (inactive) | 10.6 µM (inactive) | 26.7 µM (inactive) | 10.6 µM (inactive) | 8.93 µM (inactive)
4 | CCCCn1cc[n+](-c2nc3ccccc3n2C)c1 | > 100 µM (inactive) | > 100 µM (inactive) | > 100 µM (inactive) | > 100 µM (inactive) | – | > 100 µM (inactive) | > 100 µM (inactive) | > 100 µM (inactive) | > 100 µM (inactive) | > 100 µM (inactive) | > 100 µM (inactive) | > 10 µM (inactive) | > 100 µM (inactive) | > 100 µM (inactive) | > 100 µM (inactive) | > 100 µM (inactive) | > 100 µM (inactive) | > 100 µM (inactive) | > 100 µM (inactive) | > 100 µM (inactive)
5 | c1ccc(Nc2nnc(-c3nsc4ccccc34)o2)cc1 | > 100 µM (inactive) | 71.1 µM (inactive) | > 100 µM (inactive) | 32.9 µM (inactive) | 19.2 µM (inactive) | > 100 µM (inactive) | > 100 µM (inactive) | – | 48.4 µM (inactive) | > 100 µM (inactive) | 51.5 µM (inactive) | > 100 µM (inactive) | – | > 100 µM (inactive) | > 100 µM (inactive) | – | 71.1 µM (inactive) | > 100 µM (inactive) | > 100 µM (inactive) | > 100 µM (inactive)
6 | CN1CCc2[nH]c3ccccc3c2C1 | > 100 µM (inactive) | > 100 µM (inactive) | 87.9 µM (inactive) | > 100 µM (inactive) | > 100 µM (inactive) | > 100 µM (inactive) | > 100 µM (inactive) | > 100 µM (inactive) | > 100 µM (inactive) | > 100 µM (inactive) | > 100 µM (inactive) | > 100 µM (inactive) | > 100 µM (inactive) | > 100 µM (inactive) | > 100 µM (inactive) | > 100 µM (inactive) | > 100 µM (inactive) | > 100 µM (inactive) | > 100 µM (inactive) | > 100 µM (inactive)
7 | CCCc1c(-c2ccccc2)[nH]c2ccccc2c1=O | – | 41.3 µM (inactive) | > 100 µM (inactive) | 34.1 µM (inactive) | > 100 µM (inactive) | 22.6 µM (inactive) | > 100 µM (inactive) | > 100 µM (inactive) | – | 54.6 µM (inactive) | > 100 µM (inactive) | 72.4 µM (inactive) | > 100 µM (inactive) | 33.8 µM (inactive) | 27.2 µM (inactive) | 42.3 µM (inactive) | 89.1 µM (inactive) | > 100 µM (inactive) | 40.5 µM (inactive) | 19.2 µM (inactive)
8 | Cc1cc(C)c(NC(=O)/C=C/c2ccccc2)c(C)c1 | > 100 µM (inactive) | > 100 µM (inactive) | 36.1 µM (inactive) | 38.9 µM (inactive) | 56.6 µM (inactive) | > 100 µM (inactive) | > 100 µM (inactive) | > 100 µM (inactive) | > 100 µM (inactive) | > 100 µM (inactive) | > 100 µM (inactive) | > 100 µM (inactive) | 87.1 µM (inactive) | 59 µM (inactive) | > 100 µM (inactive) | > 100 µM (inactive) | – | > 100 µM (inactive) | 22.9 µM (inactive) | > 100 µM (inactive)
9 | COc1ccc(/C=C2/C(=O)N(C(=O)c3ccccc3O)N=C2C)cc1 | 0.175 µM (active) | 0.124 µM (active) | 0.292 µM (active) | 0.356 µM (active) | 0.0441 µM (active) | 4.57 µM (inactive) | 0.0234 µM (active) | 1.35 µM (inactive) | 0.238 µM (active) | 0.895 µM (active) | < 0.0446 µM (active) | 0.202 µM (active) | 0.0946 µM (active) | 0.109 µM (active) | 0.327 µM (active) | 0.0789 µM (active) | 0.65 µM (active) | 1.44 µM (inactive) | 0.0968 µM (active) | 0.0445 µM (active)
10 | COc1cc2c(cc1OC)C1Cc3cc(OC)c(OC)cc3C(C2)O1 | > 100 µM (inactive) | 60.1 µM (inactive) | – | > 100 µM (inactive) | > 100 µM (inactive) | > 100 µM (inactive) | 49.8 µM (inactive) | > 100 µM (inactive) | > 100 µM (inactive) | 35.2 µM (inactive) | > 100 µM (inactive) | > 100 µM (inactive) | 95.7 µM (inactive) | > 100 µM (inactive) | > 100 µM (inactive) | > 100 µM (inactive) | > 100 µM (inactive) | > 100 µM (inactive) | > 100 µM (inactive) | 83.8 µM (inactive)
11 | CC(C)OP(=O)(OC(C)C)c1ncn(-c2ccc([N+](=O)[O-])cc2)n1 | > 100 µM (inactive) | > 100 µM (inactive) | > 100 µM (inactive) | > 100 µM (inactive) | > 100 µM (inactive) | > 100 µM (inactive) | > 100 µM (inactive) | > 100 µM (inactive) | > 100 µM (inactive) | > 100 µM (inactive) | > 100 µM (inactive) | > 100 µM (inactive) | > 100 µM (inactive) | > 100 µM (inactive) | > 100 µM (inactive) | > 100 µM (inactive) | > 100 µM (inactive) | > 100 µM (inactive) | > 100 µM (inactive) | > 100 µM (inactive)
12 | CC(=O)Oc1ccc(C2COc3cc(OC(C)=O)c(OC(C)=O)cc3C2)cc1 (stereo unspecified) | 22.3 µM (inactive) | 7.57 µM (inactive) | 4.11 µM (inactive) | 25.4 µM (inactive) | 3.88 µM (inactive) | 49.3 µM (inactive) | 12.8 µM (inactive) | 20.6 µM (inactive) | 18 µM (inactive) | 14.9 µM (inactive) | 13.6 µM (inactive) | 13.7 µM (inactive) | 22.2 µM (inactive) | 11.7 µM (inactive) | 14.7 µM (inactive) | 20.7 µM (inactive) | 22.4 µM (inactive) | 17.4 µM (inactive) | 10.1 µM (inactive) | 22.3 µM (inactive)
13 | N#CCCN(c1ccc(/C=N/c2cccc([N+](=O)[O-])c2)cc1)S(=O)(=O)c1ccccc1 | > 100 µM (inactive) | > 100 µM (inactive) | > 100 µM (inactive) | > 100 µM (inactive) | > 100 µM (inactive) | > 100 µM (inactive) | > 100 µM (inactive) | 56.9 µM (inactive) | > 100 µM (inactive) | > 100 µM (inactive) | – | > 100 µM (inactive) | > 100 µM (inactive) | > 100 µM (inactive) | > 100 µM (inactive) | > 100 µM (inactive) | > 100 µM (inactive) | > 100 µM (inactive) | > 100 µM (inactive) | 36.3 µM (inactive)
